According to ChEMBL document CHEMBL5338768, “Discovery of PMSA Derivative 11 as a Novel Lead Compound for Therapeutic Treatment of Osteoporosis In Vitro and In Vivo” (J Med Chem, 2023):
Activity calls are given as the source filed them. The rule behind the calls is not given here.

How the values were obtained:
[1] = test system: Osteoclast; assay: Anti-osteoclastogenesis in RANKL induced C57/BL6 mouse osteoclast assessed as formation of mature osteoclast measured at 1 uM by TRAP-staining based microscopic analysis relative to control; format: functional
[2] = target: T1, Nuclear factor of activated T-cells, cytoplasmic 1 (Mus musculus) (UniProt O88942); assay: Inhibition of pronase mediated NFATc1 degradation in mouse osteogenic differentiated BMDM multi nuclear mature osteoclast at 50 uM for 1 hr by drug affinity responsive target stability analysis; format: cell-based
T1 sequence (whole entry): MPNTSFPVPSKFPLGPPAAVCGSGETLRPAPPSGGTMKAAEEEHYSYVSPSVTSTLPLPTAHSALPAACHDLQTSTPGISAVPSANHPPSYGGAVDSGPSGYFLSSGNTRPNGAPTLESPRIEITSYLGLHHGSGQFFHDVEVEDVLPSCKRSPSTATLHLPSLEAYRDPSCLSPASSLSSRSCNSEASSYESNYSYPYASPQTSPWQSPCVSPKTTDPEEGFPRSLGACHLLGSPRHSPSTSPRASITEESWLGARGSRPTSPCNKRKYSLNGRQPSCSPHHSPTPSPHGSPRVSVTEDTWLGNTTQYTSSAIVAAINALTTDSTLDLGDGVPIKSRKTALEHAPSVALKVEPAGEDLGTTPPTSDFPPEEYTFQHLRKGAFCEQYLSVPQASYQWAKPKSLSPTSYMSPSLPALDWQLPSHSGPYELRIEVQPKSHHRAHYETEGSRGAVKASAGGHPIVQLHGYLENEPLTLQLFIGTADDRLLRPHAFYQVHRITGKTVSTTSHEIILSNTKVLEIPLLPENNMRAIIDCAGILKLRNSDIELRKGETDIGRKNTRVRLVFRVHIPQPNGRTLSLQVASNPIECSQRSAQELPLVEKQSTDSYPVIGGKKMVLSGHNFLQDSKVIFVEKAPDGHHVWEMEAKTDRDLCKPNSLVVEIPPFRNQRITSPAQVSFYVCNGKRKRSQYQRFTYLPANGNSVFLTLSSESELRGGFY

[3] = test system: Osteoclast; assay: Anti-osteoclastogenesis in RANKL induced C57/BL6 mouse osteoclast assessed as inhibition of differentiation of bone marrow derived macrophage measured by TRAP-staining based microscopic analysis; format: functional, cell-based
[4] = test system: BMDM; assay: Cytotoxicity in RANKL induced C57/BL6 mouse BMDM incubated at <4 uM for 48 hrs; format: functional, cell-based
[5] = test system: BMDM; assay: Cytotoxicity in RANKL induced C57/BL6 mouse mouse osteogenic differentiated BMDM assessed as blocking of formation of multinucleated mature osteoclast incubated at 4 uM for 48 hrs; format: functional, cell-based
[6] = test system: Osteoclast; assay: Anti-osteoclastogenesis in RANKL induced C57/BL6 mouse osteoclast assessed as blocking of formation of multinucleated mature osteoclast incubated for 48 hrs; format: functional, cell-based; settings: dose 62.5-4000 nM
[7] = test system: BMDM; assay: Anti-osteoclastogenesis in RANKL/M-CSF induced C57/BL6 mouse osteogenic differentiated BMDM assessed as repression of F-actin ring at 500 to 2000 nM spectra max i3x fluorescence plate reader based microscopic analysis; format: functional, cell-based; settings: dose 500-2000 nM
[8] = test system: BMDM; assay: Anti-osteoclastogenesis in RANKL/M-CSF induced C57/BL6 mouse osteogenic differentiated BMDM assessed as decrease in pit area at 0.5 to 2 uM for 6 days by measuring fluorescence intensity using fluorescein amine labelled calcium plate method; format: functional, cell-based; settings: dose 0.5-2 µM, time 6.0 day
[9] = test system: Calvarial osteoblast; assay: Effect on osteogenesis in BMP2 stimulated mouse osteogenic differentiated calvaria primary osteoblast assessed as chane in percentage of ALP positive density at 0.125 to 16 uM with replacement of compound containing media daily for 9 days by ALP staining analysis; format: functional, cell-based; settings: dose 0.125-16 µM, time 9.0 day
[10] = test system: BMDM; assay: Anti-osteoclastogenesis in RANKL/M-CSF induced C57/BL6 mouse osteogenic differentiated BMDM assessed as suppression of mRNA level of osteoclastogenesis related Dc-stamp gene expression measured for 0 to 4 days by qRT-PCR analysis; format: functional, cell-based; settings: time 0-4 day
[11] = test system: BMDM; assay: Anti-osteoclastogenesis in RANKL/M-CSF induced C57/BL6 mouse osteogenic differentiated BMDM assessed as suppression of mRNA level of osteoclastogenesis related Acp5 gene expression measured for 0 to 4 days by qRT-PCR analysis; format: functional, cell-based; settings: time 0-4 day
[12] = test system: BMDM; assay: Anti-osteoclastogenesis in RANKL/M-CSF induced C57/BL6 mouse osteogenic differentiated BMDM assessed as suppression of mRNA level of osteoclastogenesis related Nfatc1 gene expression measured for 0 to 4 days by qRT-PCR analysis; format: functional, cell-based; settings: time 0-4 day
[13] = test system: BMDM; assay: Anti-osteoclastogenesis in RANKL/M-CSF induced C57/BL6 mouse osteogenic differentiated BMDM assessed as suppression of mRNA level of osteoclastogenesis related Atp6v0d2 gene expression measured for 0 to 4 days by qRT-PCR analysis; format: functional, cell-based; settings: time 0-4 day
[14] = test system: BMDM; assay: Anti-osteoclastogenesis in RANKL/M-CSF induced C57/BL6 mouse osteogenic differentiated BMDM assessed as suppression of mRNA level of osteoclastogenesis related Mmp9 gene expression measured for 0 to 4 days by qRT-PCR analysis; format: functional, cell-based; settings: time 0-4 day
[15] = test system: BMDM; assay: Anti-osteoclastogenesis in RANKL/M-CSF induced C57/BL6 mouse osteogenic differentiated BMDM assessed as suppression of mRNA level of osteoclastogenesis related Ctsk-gene expression measured for 0 to 4 days by qRT-PCR analysis; format: functional, cell-based; settings: time 0-4 day
[16] = test system: BMDM; assay: Anti-osteoclastogenesis in RANKL induced C57/BL6 mouse osteogenic differentiated BMDM assessed as inhibition of TRAF6 protein expression measured at 1 uM for 0 to 4 days by Western blotting analysis; format: functional, cell-based; settings: time 0-4 day
[17] = test system: BMDM; assay: Anti-osteoclastogenesis in RANKL induced C57/BL6 mouse osteogenic differentiated BMDM assessed as inhibition of c-src protein expression measured at 1 uM for 0 to 4 days by Western blotting analysis; format: functional, cell-based; settings: time 0-4 day
[18] = test system: BMDM; assay: Anti-osteoclastogenesis in RANKL induced C57/BL6 mouse osteogenic differentiated BMDM assessed as inhibition of N-FkappaB protein expression measured at 1 uM for 0 to 4 days by Western blotting analysis; format: functional, cell-based; settings: time 0-4 day
[19] = test system: BMDM; assay: Anti-osteoclastogenesis in RANKL induced C57/BL6 mouse osteogenic differentiated BMDM assessed as inhibition of c-fos protein expression measured at 1 uM for 0 to 4 days by Western blotting analysis; format: functional, cell-based; settings: time 0-4 day
[20] = test system: BMDM; assay: Anti-osteoclastogenesis in RANKL induced C57/BL6 mouse osteogenic differentiated BMDM assessed as inhibition of NFATc1 protein expression measured at 1 uM for 0 to 4 days by Western blotting analysis; format: functional, cell-based; settings: time 0-4 day
[21] = test system: BMDM; assay: Anti-osteoclastogenesis in RANKL induced C57/BL6 mouse osteogenic differentiated BMDM assessed as inhibition of protease Ctsk-protein expression measured at 1 uM for 0 to 4 days by Western blotting analysis; format: functional, cell-based; settings: time 0-4 day
[22] = test system: BMDM; assay: Anti-osteoclastogenesis in RANKL induced C57/BL6 mouse osteogenic differentiated BMDM assessed as increased NAFTc1 protein level in cytoplasm measured for 48 hrs by Western blotting analysis; format: functional, cell-based
[23] = test system: BMDM; assay: Anti-osteoclastogenesis in RANKL induced C57/BL6 mouse osteogenic differentiated BMDM assessed as decreased NAFTc1 protein level in nucleus measured for 48 hrs by Western blotting analysis; format: functional, cell-based
[24] = test system: BMDM; assay: Anti-osteoclastogenesis in RANKL/M-CSF induced C57/BL6 mouse osteogenic differentiated BMDM assessed as expression of calcineurin A in NAFTc1 translocation by immunofluorescence microscopy; format: functional, cell-based
[25] = test system: BMDM; assay: Anti-osteoclastogenesis in RANKL/M-CSF induced C57/BL6 mouse osteogenic differentiated BMDM assessed as expression of GSK3beta in NAFTc1 translocation by immunofluorescence microscopy; format: functional, cell-based
[26] = test system: BMDM; assay: Anti-osteoclastogenesis in RANKL/M-CSF induced C57/BL6 mouse osteogenic differentiated BMDM assessed as expression of CRM1 in NAFTc1 translocation by immunofluorescence microscopy; format: functional, cell-based
[27] = test system: BMDM; assay: Anti-osteoclastogenesis in RANKL/M-CSF induced C57/BL6 mouse osteogenic differentiated BMDM assessed as expression of GAPDH in NAFTc1 translocation by immunofluorescence microscopy; format: functional, cell-based
[28] = test system: Osteoclast; assay: Anti-osteoclastogenesis in human RANKL/human M-CSF induced human iPSC-derived macrophage assessed as inhibition of mature osteoclast differentiation measured for 10 days by TRAP staining assay; format: functional, cell-based; settings: time 10.0 day
[29] = Toxicity in OVX induced osteoporosis C57BL/6 mouse model assessed as reduction of body weight at 20 mg/kg, ip daily for 4 weeks measured every week; format: organism-based; settings: in vivo, 672 h
[30] = test system: Mus musculus; assay: Anti-osteoporosis activity in OVX induced osteoporosis C57BL/6 mouse model assessed as prevention of bone loss in femur at 20 mg/kg, ip daily for 4 weeks by micro computed tomographic analysis; format: functional, organism-based
[31] = test system: BMDM; assay: Anti-osteoclastogenesis in RANKL/M-CSF induced C57/BL6 mouse osteogenic differentiated BMDM assessed as repression of F-actin ring at 10 uM spectra max i3x fluorescence plate reader based microscopic analysis; format: functional, cell-based
[32] = test system: BMDM; assay: Anti-osteoclastogenesis in RANKL/M-CSF induced C57/BL6 mouse osteogenic differentiated BMDM assessed as decrease in pit area at 10 uM for 6 days by measuring fluorescence intensity using fluorescein amine labelled calcium plate method; format: functional, cell-based; settings: time 6.0 day

## CS(=O)(=O)N(CC(=O)Nc1ccccc1Sc1ccccc1)c1cccc(Cl)c1
[1]
  inhibition at 1 µM: 16.2%

## COc1ccc(OC(=O)c2cccc(NCC(=O)Nc3ccccc3Sc3ccccc3)c2)cc1
[1]
  inhibition at 1 µM: 50.9%

## COc1ccc(OC(=O)c2cccc(N(CC(=O)Nc3ccccc3Sc3ccccc3)S(C)(=O)=O)c2)cc1
[1]
  inhibition at 1 µM: 25.7%

## COc1ccccc1OC(=O)c1cccc(NCC(=O)Nc2ccccc2Sc2ccccc2)c1
[1]
  inhibition at 1 µM: 52.3%

## CS(=O)(=O)N(CC(=O)Nc1ccccc1Sc1ccccc1)c1cccc(C(=O)Oc2cccc([N+](=O)[O-])c2)c1
[1]
  inhibition at 1 µM: 4.74%

## CS(=O)(=O)N(CC(=O)Nc1ccccc1Sc1ccccc1)c1cccc(C(=O)O)c1
[1]
  inhibition at 1 µM: 0.11%

## CS(=O)(=O)N(CC(=O)Nc1ccccc1Sc1ccccc1)c1cccc(C(=O)Oc2cccc3ccccc23)c1
[1]
  inhibition at 1 µM: 9.03%

## CS(=O)(=O)N(CC(=O)Nc1ccccc1Sc1ccccc1)c1cccc(C(=O)Oc2ccc3ccccc3c2)c1
[1]
  inhibition at 1 µM: 11.3%

## NCCCC(O)(P(=O)(O)O)P(=O)(O)O [ALENDRONIC ACID]
[1]
  inhibition at 1 µM: 30.9%

## CC(C)(C)c1ccc(OC(=O)c2cccc(N(CC(=O)Nc3ccccc3Sc3ccccc3)S(C)(=O)=O)c2)cc1
[1]
  inhibition at 1 µM: 4.07%

## Cc1cccc(OC(=O)c2cccc(N(CC(=O)Nc3ccccc3Sc3ccccc3)S(C)(=O)=O)c2)c1
[1]
  inhibition at 1 µM: 19%

## CS(=O)(=O)N(CC(=O)Nc1ccccc1Sc1ccccc1)c1cccc(C(=O)Oc2ccc([N+](=O)[O-])cc2)c1
[1]
  inhibition at 1 µM: 15.3%

## O=C(CNc1cccc(C(=O)Oc2ccc(Cl)cc2)c1)Nc1ccccc1Sc1ccccc1
[1]
  inhibition at 1 µM: 43.2%

## COC(=O)c1cccc(NCC(=O)Nc2ccccc2Sc2ccccc2)c1
[2]
  inhibition: Active
[1]
  inhibition at 1 µM: 74.5%
[3]
  IC50: 323 nM
[4]
  Activity: inactive
[5]
  Activity: Active
[6]
  Activity: Dose-Dependent Effect
[7]
  Activity: Active
[8]
  Activity: Dose-Dependent Effect
[9]
  Activity: inactive
[10]
  Activity: Active
[11]
  Activity: Active
[12]
  Activity: Active
[13]
  Activity: Active
[14]
  Activity: Active
[15]
  Activity: Active
[16]
  Activity: inactive
[17]
  Activity: inactive
[18]
  Activity: inactive
[19]
  Activity: inactive
[20]
  Activity: inactive
[21]
  Activity: Active
[22]
  Activity: Active
[23]
  Activity: Active
[24]
  Activity: inactive
[25]
  Activity: inactive
[26]
  Activity: inactive
[27]
  Activity: inactive
[28]
  Activity: Active
[29]
  Activity: Non-Toxic
[30]
  Activity: Active

## COC(=O)c1cccc(N(CC(=O)Nc2ccccc2Sc2ccccc2)S(C)(=O)=O)c1
[1]
  inhibition at 1 µM: 8.13%

## Cc1ccc(OC(=O)c2cccc(N(CC(=O)Nc3ccccc3Sc3ccccc3)S(C)(=O)=O)c2)cc1
[1]
  inhibition at 1 µM: 14.2%

## CS(=O)(=O)N(CC(=O)Nc1ccccc1Sc1ccccc1)c1cccc(C(=O)Oc2ccc(Cl)cc2)c1
[1]
  inhibition at 1 µM: 23.9%

## CC(=O)c1cccc(N(CC(=O)Nc2ccccc2Sc2ccccc2)S(C)(=O)=O)c1
[1]
  inhibition at 1 µM: 6.09%
[31]
  Activity: Active
[32]
  Activity: Active
[30]
  Activity: inactive

## COc1ccccc1OC(=O)c1cccc(N(CC(=O)Nc2ccccc2Sc2ccccc2)S(C)(=O)=O)c1
[1]
  inhibition at 1 µM: 20.3%

## CS(=O)(=O)N(CC(=O)Nc1ccccc1Sc1ccccc1)c1cccc(C(=O)Oc2ccccc2C#N)c1
[1]
  inhibition at 1 µM: 11.1%

## Cc1ccccc1OC(=O)c1cccc(N(CC(=O)Nc2ccccc2Sc2ccccc2)S(C)(=O)=O)c1
[1]
  inhibition at 1 µM: 15.3%
